PMC4452589, “An evaluation of the brain distribution of [^11C]GSK1034702, a muscarinic-1 (M1) positive allosteric modulator in the living human brain using positron emission tomography” (EJNMMI Research, 2014)
Where two headings read alike, the source gives them in different places.

Key:
[1] = [11C]GSK1034702 PET brain distribution and kinetics in healthy male humans; assay type: in vivo; settings: human
Method: An open-label PET study (GSK study number 110771) was conducted to assess the transport of [^11C]GSK1034702 across the BBB and its distribution in the living human brain. Four healthy males aged between 35 and 55 years old, with body mass index (BMI) between 19.0 and 29.0 kg/m^2, and the absence of past or present neurological, medical or psychiatric illnesses and concomitant medications were enrolled. Clinical status was assessed by history, physical examination, routine blood tests, urine toxicology and electrocardiogram. All subjects provided written informed consent. The study was approved by the Edinburgh Independent Ethics Committee for Medical Research and permission to administer radioisotopes was obtained from the Administration of Radioactive Substances Advisory Committee of the UK. Subjects were recruited by and monitored by the Hammersmith Medicines Research (HMR) clinic. All scanning procedures were performed at the GlaxoSmithKline Clinical Imaging Center, Hammersmith Hospital, London.
Each subject underwent a single study day, during which PET imaging was performed. T1-weighted structural MRI scan was performed for all subjects to provide neuroanatomical information. A tracer dose of [^11C]GSK1034702 (mass <50 μg) was administered as an IV bolus immediately before each PET scan. During the scanning day, each subject received a baseline [^11C]GSK1034702 scan, followed by a single 5-mg oral dose (p.o.) of […] and a subsequent [^11C]GSK1034702 scan approximately 4 h post-dose. Subjects returned to the clinic for a follow-up visit 7 to 14 days following the oral dose of GSK1034702.
Dynamic PET data were acquired using a Siemens Biograph 6 Truepoint with TrueV PET-CT (Siemens Healthcare, Malvern, PA, USA) in three-dimensional (3D) mode. A computed tomography (CT) scan was acquired for attenuation correction of PET data prior to administration of the radiotracer. A cannula was inserted under local anaesthesia into the radial artery, contralateral to the tracer injection site, and used to collect arterial blood samples to estimate the time course of radioactivity and metabolism of GSK1034702. The radiotracer was administered as an IV bolus over 20 s, and dynamic PET data were acquired for 90 min.
Arterial blood radioactivity was measured continuously for the first 15 min after [^11C]GSK1034702 injection, using a continuous sampling system (ABSS Allogg, Mariefred, Sweden). In addition, 12 serial discrete blood samples were obtained (at 5, 10, 15, 20, 25, 30, 40, 50, 60, 70, 80 and 90 min post injection), to determine whole blood and plasma activity. Seven samples (at 5, 10, 20, 30, 50, 70 and 90 min) were further processed by HPLC to measure the fraction of plasma activity representing unmetabolised GSK1034702. For all human studies, the non-protein-bound fraction of [^11C]GSK1034702 in arterial plasma (fP) was assessed by ultrafiltration for the blood sample taken at the beginning of the scan.
Emission PET data were binned into 26 frames (durations: 8 × 15 s, 3 × 60 s, 5 × 2 min, […], 5 × 10 min) and reconstructed using Fourier re-binning and a two-dimensional (2D) filtered back projection algorithm with a ramp filter. Image data were then smoothed with a Gaussian filter (5 mm FWHM). The PET reconstruction process included corrections for scatter, randoms and attenuation. Dynamic PET data were corrected for motion via frame-to-frame image registration and aligned with the structural T1 MRI image using SPM5 (Wellcome Trust Centre for Neuroimaging, http://www.fil.ion.ucl.ac.uk/spm) with a mutual information cost function.
The CIC Neuroanatomical Atlas was non-linearly deformed into the individual's space to obtain a personalised anatomical parcellation of ROIs. These ROIs were applied to the dynamic emission data, and regional TACs were obtained for the whole brain, frontal cortex, occipital cortex, striatum, thalamus, hippocampus and cerebellum. […]

[2] = plasma free fraction by ultrafiltration, baboon arterial plasma; assay type: in vitro ADME; settings: baboon (Papio anubis), mean ± SD, read-out: free fraction in plasma (fP)
Method: For all non-human primate studies, the non-protein-bound fraction of [^11C]GSK1034702 in arterial plasma (fP) was quantified using the following methodology: triplicate 200 μL aliquots of plasma collected before injection were mixed with [^11C]GSK1034702, pipetted into ultrafiltration units (Centrifree; Amicon, Danvers, MA, USA) and centrifuged at room temperature (20 min at 4,000 rpm). At the end of centrifugation, plasma and ultrafiltrate activities were counted and fP was calculated as the ratio of ultrafiltrate to total activity concentrations.

[3] = male, whole brain, intravenous, two-tissue compartmental model, read-out: whole brain VT

## Cc1cc(F)c2[nH]c(=O)n(C3CCN(C4CCOCC4)CC3)c2c1 [GSK1034702]
[1]; male, cortex, intravenous, read-out: VT measured in the human cortex
  Kp: 4.9
[1]; [3]
  Kp: 4.9
[2]
  fraction unbound at 20 min: 0.54

## [11CH3]c1cc(F)c2[nH]c(=O)n(C3CCN(C4CCOCC4)CC3)c2c1 [[^11C]GSK1034702]
[1]; Cerebellum, Subject 1 Scan 1 (baseline)
  K 1: 0.23 mL.cm^−3.min^−1
[1]; Cerebellum, Subject 2 Scan 1 (baseline)
  K 1: 0.19 mL.cm^−3.min^−1
[1]; Cerebellum, Subject 2 Scan 2 (post dose, 5 mg oral)
  K 1: 0.15 mL.cm^−3.min^−1
[1]; Cerebellum, Subject 4 Scan 1 (baseline)
  K 1: 0.19 mL.cm^−3.min^−1
[1]; Cerebellum, Subject 4 Scan 2 (post dose, 5 mg oral)
  K 1: 0.19 mL.cm^−3.min^−1
[1]; Cortex, Subject 1 Scan 1 (baseline)
  K 1: 0.19 mL.cm^−3.min^−1
[1]; Cortex, Subject 2 Scan 1 (baseline)
  K 1: 0.16 mL.cm^−3.min^−1
[1]; Cortex, Subject 2 Scan 2 (post dose, 5 mg oral)
  K 1: 0.12 mL.cm^−3.min^−1
[1]; Cortex, Subject 4 Scan 1 (baseline)
  K 1: 0.16 mL.cm^−3.min^−1
[1]; Cortex, Subject 4 Scan 2 (post dose, 5 mg oral)
  K 1: 0.17 mL.cm^−3.min^−1
[1]; MTL, Subject 1 Scan 1 (baseline)
  K 1: 0.33 mL.cm^−3.min^−1
[1]; MTL, Subject 2 Scan 1 (baseline)
  K 1: 0.19 mL.cm^−3.min^−1
[1]; MTL, Subject 2 Scan 2 (post dose, 5 mg oral)
  K 1: 0.16 mL.cm^−3.min^−1
[1]; MTL, Subject 4 Scan 1 (baseline)
  K 1: 0.24 mL.cm^−3.min^−1
[1]; MTL, Subject 4 Scan 2 (post dose, 5 mg oral)
  K 1: 0.25 mL.cm^−3.min^−1
[1]; Striatum, Subject 1 Scan 1 (baseline)
  K 1: 0.20 mL.cm^−3.min^−1
[1]; Striatum, Subject 2 Scan 1 (baseline)
  K 1: 0.16 mL.cm^−3.min^−1
[1]; Striatum, Subject 2 Scan 2 (post dose, 5 mg oral)
  K 1: 0.13 mL.cm^−3.min^−1
[1]; Striatum, Subject 4 Scan 1 (baseline)
  K 1: 0.18 mL.cm^−3.min^−1
[1]; Striatum, Subject 4 Scan 2 (post dose, 5 mg oral)
  K 1: 0.18 mL.cm^−3.min^−1
[1]; Thalamus, Subject 1 Scan 1 (baseline)
  K 1: 0.29 mL.cm^−3.min^−1
[1]; Thalamus, Subject 2 Scan 1 (baseline)
  K 1: 0.19 mL.cm^−3.min^−1
[1]; Thalamus, Subject 2 Scan 2 (post dose, 5 mg oral)
  K 1: 0.15 mL.cm^−3.min^−1
[1]; Thalamus, Subject 4 Scan 1 (baseline)
  K 1: 0.20 mL.cm^−3.min^−1
[1]; Thalamus, Subject 4 Scan 2 (post dose, 5 mg oral)
  K 1: 0.20 mL.cm^−3.min^−1
[1]; White matter, Subject 1 Scan 1 (baseline)
  K 1: 0.13 mL.cm^−3.min^−1
[1]; White matter, Subject 2 Scan 1 (baseline)
  K 1: 0.10 mL.cm^−3.min^−1
[1]; White matter, Subject 2 Scan 2 (post dose, 5 mg oral)
  K 1: 0.08 mL.cm^−3.min^−1
[1]; White matter, Subject 4 Scan 1 (baseline)
  K 1: 0.11 mL.cm^−3.min^−1
[1]; White matter, Subject 4 Scan 2 (post dose, 5 mg oral)
  K 1: 0.11 mL.cm^−3.min^−1
[1]; both subjects with pre- and post-dose data
  change in MTL VT following oral dose of 5 mg GSK1034702: small (but non-significant) reduction
[1]; brain cortex, intravenous, Cortex, Subject 1 Scan 1 (baseline), read-out: V T
  Kp: 5.37
[1]; brain cortex, intravenous, Cortex, Subject 2 Scan 1 (baseline), read-out: V T
  Kp: 5
[1]; brain cortex, intravenous, Cortex, Subject 4 Scan 1 (baseline), read-out: V T
  Kp: 5.57
[1]; brain cortex, po, Cortex, Subject 2 Scan 2 (post dose, 5 mg oral), read-out: V T
  Kp: 4.03
[1]; brain cortex, po, Cortex, Subject 4 Scan 2 (post dose, 5 mg oral), read-out: V T
  Kp: 4.81
[1]; brain striatum, intravenous, Striatum, Subject 1 Scan 1 (baseline), read-out: V T
  Kp: 5.59
[1]; brain striatum, intravenous, Striatum, Subject 2 Scan 1 (baseline), read-out: V T
  Kp: 5.05
[1]; brain striatum, intravenous, Striatum, Subject 4 Scan 1 (baseline), read-out: V T
  Kp: 5.83
[1]; brain striatum, po, Striatum, Subject 2 Scan 2 (post dose, 5 mg oral), read-out: V T
  Kp: 5.29
[1]; brain striatum, po, Striatum, Subject 4 Scan 2 (post dose, 5 mg oral), read-out: V T
  Kp: 4.93
[1]; brain white matter, intravenous, White matter, Subject 4 Scan 1 (baseline), read-out: V T
  Kp: 5.04
[1]; cerebellum, intravenous, Cerebellum, Subject 1 Scan 1 (baseline), read-out: V T
  Kp: 5.33
[1]; cerebellum, intravenous, Cerebellum, Subject 2 Scan 1 (baseline), read-out: V T
  Kp: 4.75
[1]; cerebellum, intravenous, Cerebellum, Subject 4 Scan 1 (baseline), read-out: V T
  Kp: 5.17
[1]; cerebellum, po, Cerebellum, Subject 2 Scan 2 (post dose, 5 mg oral), read-out: V T
  Kp: 3.69
[1]; cerebellum, po, Cerebellum, Subject 4 Scan 2 (post dose, 5 mg oral), read-out: V T
  Kp: 4.56
[1]; medial temporal lobe (MTL), intravenous, MTL, Subject 1 Scan 1 (baseline), read-out: V T
  Kp: 7.81
[1]; medial temporal lobe (MTL), intravenous, MTL, Subject 2 Scan 1 (baseline), read-out: V T
  Kp: 13.3
[1]; medial temporal lobe (MTL), intravenous, MTL, Subject 4 Scan 1 (baseline), read-out: V T
  Kp: 7.11
[1]; medial temporal lobe (MTL), po, MTL, Subject 2 Scan 2 (post dose, 5 mg oral), read-out: V T
  Kp: 8.3
[1]; medial temporal lobe (MTL), po, MTL, Subject 4 Scan 2 (post dose, 5 mg oral), read-out: V T
  Kp: 6.91
[1]; post-dose versus baseline scan
  change in K1 following oral dose of 5 mg GSK1034702: no significant change
  change in VT following oral dose of 5 mg GSK1034702: no significant change
[1]; thalamus, intravenous, Thalamus, Subject 1 Scan 1 (baseline), read-out: V T
  Kp: 6.29
[1]; thalamus, intravenous, Thalamus, Subject 2 Scan 1 (baseline), read-out: V T
  Kp: 5.44
[1]; thalamus, intravenous, Thalamus, Subject 4 Scan 1 (baseline), read-out: V T
  Kp: 5.74
[1]; thalamus, po, Thalamus, Subject 2 Scan 2 (post dose, 5 mg oral), read-out: V T
  Kp: 4.39
[1]; thalamus, po, Thalamus, Subject 4 Scan 2 (post dose, 5 mg oral), read-out: V T
  Kp: 5.11
[1]; white matter, intravenous, White matter, Subject 1 Scan 1 (baseline), read-out: V T
  Kp: 4.63
[1]; white matter, intravenous, White matter, Subject 2 Scan 1 (baseline), read-out: V T
  Kp: 4.38
[1]; white matter, po, White matter, Subject 2 Scan 2 (post dose, 5 mg oral), read-out: V T
  Kp: 4.01
[1]; white matter, po, White matter, Subject 4 Scan 2 (post dose, 5 mg oral), read-out: V T
  Kp: 4.49
[1]; male, medial temporal lobe (MTL), intravenous, range over scans, read-out: VT in the MTL
  Kp: 7 to 13
[1]; male, white matter, intravenous, range over scans, read-out: VT in the white matter
  Kp: 4 to 5
[1]; [3]
  Kp: 4.9
[2]
  fraction unbound at 20 min: 0.54 ± 0.21
